# Source: patent US20120129842A1, “BISTHIAZOLE INHIBITORS OF PRO-MATRIX METALLOPROTEINASE ACTIVATION” (priority 2010, published 2012)
# pKd: −log10 of the molar value.
# Molecular target: T1, proMMP9(20-445;ΔFnII) (SEQ ID NO:6) (Homo sapiens, UniProt P14780, DEL216-390)
# T1 construct: start methionine (N); made in house; host or cells: E. coli BL21(DE3) RIL
# T1 sequence (P14780 with tags, fused parts or gaps DEL216-390): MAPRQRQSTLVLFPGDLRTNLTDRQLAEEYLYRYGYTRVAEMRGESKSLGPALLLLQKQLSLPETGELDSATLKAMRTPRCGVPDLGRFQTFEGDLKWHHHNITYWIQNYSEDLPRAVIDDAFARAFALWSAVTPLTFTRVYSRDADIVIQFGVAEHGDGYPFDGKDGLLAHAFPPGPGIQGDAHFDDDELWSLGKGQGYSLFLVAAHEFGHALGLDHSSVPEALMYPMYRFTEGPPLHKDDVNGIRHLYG
# Experiment: ThermoFluor binding assay with proMMP9(20-445;ΔFnII)
# Details: pH 7.0
# In short: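 proMMP9(20-445;ΔFnII) at 2.8 μM with 50 μM 1,8-ANS in 50 mM HEPES pH 7.0, 100 mM NaCl, 0.001% Tween-20, 2.5 mM MgCl2, 300 μM CaCl2; compounds serially diluted in DMSO. Heated 40–90 °C at 1 °C/min, fluorescence read at 500±25 nm. Tm fit by standard equations; binding fit using DSC/TF-derived thermodynamic parameters.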
compound,measurement,value
"Cc1nc(C)c(-c2csc(Nc3cc(S(N)(=O)=O)ccc3OC(C)C)n2)s1 [Example 64, 3-(2′,4′-Dimethyl-[4,5′]bithiazolyl-2-ylamino)-4-isopropoxy-benzenesulfonamide.HBr]",pKd,7.00
